Entries after “also recorded” stand apart in the source; their conditions may differ.
Columns and labels:
[1] = system: E. coli and S. agalactiae; experiment: P-AST species-pair interaction on antibiotic resistance (logistic regression, HSAP/UP); assay type: cell-based, Escherichia coli; Streptococcus agalactiae; details: E. coli and S. agalactiae together v. expected from each species alone (HSAP/UP)
Experimental: (§1) The Pooled Antibiotic Sensitivity Test (P-AST) is permitting the organisms identified to grow in the presence of antibiotics and measuring the minimum concentration of antibiotic to inhibit growth. Antibiotic susceptibility testing is performed when at least a single organism within a pool of organisms reaches a certain threshold, (e.g., at least 3,000 cells/ml, at least 5,000 cells/ml, at least 10,000 cells/ml, etc.) and can grow in the presence of the antibiotic in the assay within the time of testing. (Note: 10,000 cells/ml is equivalent to 10,000 CFU/ml.) The present invention is not limited to a 10,000 cells/mL threshold. These pools of organism(s) are inoculated into growth medium then placed onto an antibiotic laden “spec plate” that is then incubated and analyzed for growth. The breakpoints are derived from the CLSI breakpoints.
(§2) P-AST was performed by aliquoting 1 mL of patient urine specimen into a 1.7 mL microcentrifuge tube. After centrifugation, the supernatant was aspirated and discarded, leaving approximately 100 or 50 μL (minimum volume left above pellet created from centrifugation) of patient sample in the microcentrifuge tube. One mL of Mueller Hinton Growth Media was then aliquoted into the patient sample in the microcentrifuge tube and the tubes were incubated at 35° C. in a non-CO2 incubator for 6 hours. Non-inoculated liquid MH-media is incubated as the negative control to confirm the media used is not contaminated. Those samples that reached a minimum threshold of 10,000 cells/mL were then diluted by aliquoting 0.5 mL of sample into a 50 mL conical tube containing Mueller Hinton Growth Media (in this example, the dilution was 1:60, e.g., 500 μL was added to 29.5 mL). 96-well plates pre-loaded with antibiotics were then inoculated with diluted samples and incubated along with control plates for 12-16 hours at 35° C. in a single layer. Optical density of samples was then read on a DensiCHEK plate reader. The DensiCHEK instrument is used to measure the concentration of turbid samples considered positive because PCR-ID result was >=10,000 cells/mL. The turbid samples were diluted/normalized to the same concentration and then added to a volume of liquid, e.g., 29.5 mL of liquid MH-media. A spectrophotometer (plate reader) is used to measure optical density of the samples in wells of antibiotics and inoculum in order to determine if there is growth in a well. The present invention is not limited to a concentration of 10,000 cells/mL.
(§3) Interactions between pairs of bacterial species were investigated using a logistic regression model to predict resistance in the presence of specific bacterial species. Bacterial species that tested positive in at least 30 samples were considered in the regression model: these 16 species were A. schaalii, A. urinae, A. omnicolens, CoNS, C. riegelii, E. faecalis, E. coli, K. oxytoca, K. pneumoniae, M. morganii, P. mirabilis, P. aeruginosa, S. aureus, S. agalactiae, U. urealyticum, VGS. Backward stepwise model selection was performed on the model with all main effects and all pairwise interactions using an enter significance level of α=0.10 and an exit significance level of α=0.05 to obtain the best fitting model. This model was used to predict resistance rates when a specific organism was present or when a specific pair of organisms were present.
(§4) Using the logistic regression model described above, the resistance rate for a pair of species was compared to the resistance rates for each species alone. […]

[2] = system: E. coli and K. oxytoca; experiment: as above; assay type: cell-based, Escherichia coli; Klebsiella oxytoca; details: E. coli and K. oxytoca together v. expected from each species alone (HSAP/UP)
Experimental: as §1
(§5) P-AST was performed by aliquoting 1 mL of patient urine specimen into a 1.7 mL microcentrifuge tube. After centrifugation, the supernatant was aspirated and discarded, leaving approximately 100 or 50 μL (minimum volume left above pellet created from centrifugation) of patient sample in the microcentrifuge tube. […] Optical density of samples was then read on a DensiCHEK plate reader. […] A spectrophotometer (plate reader) is used to measure optical density of the samples in wells of antibiotics and inoculum in order to determine if there is growth in a well. […]

[3] = system: bacterial organisms present in patient urine sample; experiment: Antibiotic Resistance (ABR) assay utilizing liquid growth medium; assay type: cell-based; details: for Blanked (OD reading): blanked with Na-Azide well; for Mean (OD reading): raw OD600 of well; for Result (Resistant/Sensitive): threshold OD600 of 0.065
Experimental: Urine samples suitable for processing with this assay are collected, transported, and stored using BD Vacutainer tubes or other suitable leak-proof sterile containers. Urine samples may be held at room temperature for 48 hours before test results are compromised.
Antibiotic stocks are stored at 2-8° C. and protected from direct sunlight. Prepared antibiotic stock solutions were aliquoted into a 96-deep well plate (ThermoFisher Scientific) to form a 50× Antibiotic Source Plate and then diluted 1:5 to form a 10× Antibiotic Source Plate, as shown in FIG. 12 where each well is identified by antibiotic name and concentration (μg/mL; 10× final concentration). […] One well was assigned sodium azide to ensure no bacterial growth would be observed in that well.
Twenty microliters of each antibiotic solution were aliquoted into the pre-determined wells of a 96-well microplate (VIS 96/F-PS, Eppendorf) from the 10× Antibiotic Source Plate to create ABR testing plates for inoculation. These ABR testing plates were allowed to sit for up to 24 hours before use at 2-8° C. in the dark.
At the time of testing, urine samples were centrifuged to concentrate any bacterial cells and then mixed with liquid Mueller-Hinton medium and incubated for 6-16 hours at 37° C. After this initial incubation, the sample is diluted to 0.5-0.6 McF in saline and then 500 μl of that suspension was added to […] of Mueller-Hinton medium. One-hundred and eighty microliters of the diluted sample is then aliquoted to each well of the ABR microplate already containing 10× antibiotic solution, bringing all of the antibiotics to the desired final concentration. The plate is then sealed and incubated for 12-16 hours at 37° C.
After incubation, the plate was removed from the incubator and carefully uncovered and the OD600 was determined for each appropriate well by spectrophotometer. Five separate measurements were taken of each well on a plate and the mean OD600 measurement calculated for each well.
Controls are depicted in Table 10.
The raw data was then “blanked” using the measurement obtained from the Na-Azide well, as depicted in Table 14.
To determine whether bacterial organisms present in the patient samples were resistant or sensitive to a particular antibiotic at a certain concentration, blanked OD readings were compared to a threshold OD600 of 0.065 (Table 15). An OD measurement greater than or equal to this threshold was designated Resistant (R) meaning bacterial organisms present in patient sample were resistant to that particular antibiotic at that certain concentration. Any OD measurement less than this threshold was designated Sensitive (S) meaning bacterial organisms present in patient sample were sensitive to that particular antibiotic at that certain concentration.

[4] = system: E. coli and P. mirabilis; experiment: P-AST species-pair interaction on antibiotic resistance (logistic regression, HSAP/UP); assay type: cell-based, Escherichia coli; Proteus mirabilis; details: E. coli and P. mirabilis together v. expected from each species alone (HSAP/UP)
Experimental: as §1, §2, §3, §4

[5] = system: E. coli and K. pneumoniae; experiment: as above; assay type: cell-based, Escherichia coli; Klebsiella pneumoniae
Experimental: as §1, §5

[6] = system: bacteria detected in patient urine specimens; experiment: Pooled Antibiotic Susceptibility Testing (P-AST) of urine specimens, polymicrobial v. monomicrobial (logistic regression); assay type: cell-based; details: urine specimens, 95% confidence interval in parentheses
[7] = system: Coagulase-negative Staphylococcus (CoNS) and E. faecalis; experiment: P-AST species-pair interaction on antibiotic resistance (logistic regression, HSAP/UP); assay type: cell-based, Coagulase negative staphylococci; Enterococcus faecalis; details: CoNS and E. faecalis together v. expected from each species alone (HSAP/UP)
Experimental: as §1, §5

[8] = system: Coagulase-negative Staphylococcus (CoNS) and S. agalactiae; details: CoNS and S. agalactiae together v. expected from each species alone (HSAP/UP)
[9] = system: Coagulase-negative Staphylococcus (CoNS) and K. pneumoniae; experiment: P-AST species-pair interaction on antibiotic resistance (logistic regression, HSAP/UP); assay type: cell-based, Coagulase negative staphylococci; Klebsiella pneumoniae; details: CoNS and K. pneumoniae together v. expected from each species alone (HSAP/UP)
Experimental: as §1, §2
Interactions between pairs of bacterial species were investigated using a logistic regression model to predict resistance in the presence of specific bacterial species. […]

[10] = antibiotic 1 μg/mL, liquid medium
[11] = antibiotic 2 μg/mL, liquid medium
[12] = antibiotic 4 μg/mL, liquid medium
[13] = antibiotic 8 μg/mL, liquid medium
[14] = antibiotic 16 μg/mL, liquid medium
[15] = antibiotic 32 μg/mL, liquid medium

For `CO/N=C(\C(=O)N[C@@H]1C(=O)N2C(C(=O)[O-])=C(C[N+]3(C)CCCC3)CS[C@H]12)c1csc(N)n1` [Cefepime, cefepime], which “change in antibiotic resistance of the pair of organisms” value (“change in antibiotic resistance” for short) [1] is on record?
Its value is “decrease in resistance; also recorded: decreased odds of resistance”.

What about the “change in antibiotic resistance” value [2] of the same compound?
The value was “decrease in resistance; also recorded: decreased odds of resistance”.

What about the “Blanked (OD600 minus Na-Azide well)” value [3, 10] of the same compound?
The value was 0.1959.

And the “Mean (OD600)” value [3, 10]?
The value was 0.2416.

And the “Blanked (OD600 minus Na-Azide well)” value [3, 11]?
The value was 0.1970.

And the “Mean (OD600)” value [3, 11]?
Its value is 0.2427.

And the “Blanked (OD600 minus Na-Azide well)” value [3, 12]?
The value was 0.1960.

And the “Mean (OD600)” value [3, 12]?
Its value is 0.2417.

What about the “Blanked (OD600 minus Na-Azide well)” value [3, 13] of the same compound?
The value was 0.1947.

What about the “Mean (OD600)” value [3, 13] of the same compound?
The value was 0.2404.

And the “Blanked (OD600 minus Na-Azide well)” value [3, 14]?
The value was 0.1866.

And the “Mean (OD600)” value [3, 14]?
Its value is 0.2323.

What about the “Blanked (OD600 minus Na-Azide well)” value [3, 15] of the same compound?
The value was 0.1824.

And the “Mean (OD600)” value [3, 15]?
The value was 0.2281.

For `N[C@@H](C(=O)N[C@@H]1C(=O)N2C(C(=O)O)=C(Cl)CS[C@H]12)c1ccccc1` [Cefaclor, cefaclor], which “change in antibiotic resistance” value [4] is on record?
Its value is “decrease in resistance; also recorded: decreased odds of resistance”.

And the “change in antibiotic resistance” value ([5]; E. coli and K. pneumoniae together v. expected from each species alone (HSAP/UP))?
The value was “increased odds of resistance; also recorded: higher resistance; also recorded: increased the probability of antibiotic resistance; also recorded: increase in resistance”.

What about the “resistance rate of the combination compared with each species alone” value ([5]; predicted probabilities, FIG. 1, HSAP model) of the same compound?
The value was “higher than either E. coli or K. pneumoniae alone”.

And the “Blanked (OD600 minus Na-Azide well)” value [3, 13]?
The value was 0.1875.

And the “Mean (OD600)” value [3, 13]?
The value was 0.2332.

And the “Blanked (OD600 minus Na-Azide well)” value [3, 15]?
Its value is 0.0143.

What about the “Mean (OD600)” value [3, 15] of the same compound?
Its value is 0.0600.

For gentamicin, which “Odds Ratio of Resistance Polymicrobial v. Monomicrobial” value [6] is on record?
Its value is 1.17 (0.90, 1.51).

What about the “Odds Ratio of Resistance for Each Additional Species” value [6] of the same compound?
The value was 1.01 (0.92, 1.11).

And the “change in antibiotic resistance” value [7]?
The value was “decrease in resistance; also recorded: decreased odds of resistance”.

And the “change in antibiotic resistance” value [8]?
Its value is “decrease in resistance; also recorded: decreased odds of resistance”.

And the “Blanked (OD600 minus Na-Azide well)” value [3, 12]?
Its value is 0.0158.

And the “Mean (OD600)” value [3, 12]?
Its value is 0.0615.

What about the “Blanked (OD600 minus Na-Azide well)” value [3, 14] of the same compound?
Its value is −0.0031.

What about the “Mean (OD600)” value [3, 14] of the same compound?
Its value is 0.0426.

And the “Blanked (OD reading)” value ([3]; antibiotic concentration 4)?
The value was 0.0158.

And the “Mean (OD reading)” value ([3]; antibiotic concentration 4)?
The value was 0.0615.

What about the “Result (Resistant/Sensitive)” value ([3]; antibiotic concentration 4) of the same compound?
Its value is “S (Any OD measurement less than this threshold was designated Sensitive (S))”.

And the “Blanked (OD reading)” value ([3]; antibiotic concentration 16)?
The value was −0.0031.

And the “Mean (OD reading)” value ([3]; antibiotic concentration 16)?
Its value is 0.0426.

And the “Result (Resistant/Sensitive)” value ([3]; antibiotic concentration 16)?
The value was “S (Any OD measurement less than this threshold was designated Sensitive (S))”.

And the “overall sensitivity of the bacteria in the sample to the antibiotic (in words)” value ([3]; liquid medium, Example 4 sample)?
The value was “sensitive”.

And the “change in antibiotic resistance” value [9]?
Its value is “decrease in resistance; also recorded: decreased odds of resistance”.

Source: patent US20210301315A1, “METHODS FOR TREATING POLYMICROBIAL INFECTIONS” (priority 2017, published 2021)
